Experiments:
[1] = system: MCF7 (human breast cancer cell line); assay: MTT toxicity assay in MCF7 breast cancer cells; assay type: cell-based
Description: Toxicity of the dibenzyl butyl lactone derivative (3-[(3,4-dimethoxyphenyl)cyclopentyl], 4-[(3-hydroxyphenol)methyl]oxolan-2-one) in breast cancer cells was evaluated using MTT assay. The MTT toxicity test is a colorimetric assay to measure cells' metabolic activity by serving as a substrate of cellular enzymes that reduce the tetrazolium orange dye, MTT (3-(4,5-Dimethylthiazol-2-yl)-2,5-diphenyltetrazolium bromide) to its insoluble, formazan, giving a purple color. The rate of conversion is directly proportional to cells' mitochondrial metabolic activity via NAD (P) H-dependent cellular oxidoreductase enzymes and serves as a surrogate marker of cell viability.
Cultures of MCF7 (human breast cancer cell line) working stock (5 passages) were established under standard culture conditions in Eagle's minimum essential medium (EMEM). EMEM was supplemented with 10% fetal bovine serum (FBS), 2 mM Glutamine and Pen/Strep, and Penicillin 0.01 mg/ml.
Cells previously expanded were seeded in 96 well plates at 1.9×10^5 and 9.6×10^4 cells/plate for 24- and 72-hours treatment respectively. This concentration is known to show the best window for the MTT assay, with better sensitivity and low variability.
5 mg of powdered enterolactone, dibenzyl butyl lactone derivative enantiomer A, and dibenzyl butyl lactone derivative enantiomer B were dissolved in 500 μl of DMSO at room temperature. Eight-point curves, ⅓ dilutions (highest concentration 125 μM), were prepared.
Twenty-four hours following the seeding process, the cells were washed once with phosphate buffered saline (PBS) and treated with the respective compounds in cell culture media. Each condition was tested in triplicates. For positive and negative controls, 8 mM methyl methane sulfonate (MMS) and DMSO 100% were used respectively.
Following compound addition, the plates were incubated for 24 and 72 hours. After the treatment period, cells were washed twice with PBS and media was replaced with MTT reagent at 0.5 mg/ml in Dulbecco's modified Eagle medium (DMEM) without phenol red. The plates were gently shaken and incubated for 4 hours. After the incubation the medium was removed and replaced by DMSO. The plates were gently shaken to solubilize the formazan crystals. Absorbance was measured using an Envision multiplate reader at a wavelength of 570 nm.
Eight serial dilutions were prepared (125.00, 41.67, 13.89, 4.63, 1.54, 0.51, 0.17 and 0.06 µM to evaluate the compounds (in triplicate). MTT results showing cell death values above 20% are considered as having a significant toxic effect.
MTT assay results are shown in Tables 2-7 and expressed as the percentage of cell death after treatment.

[2] = system: human induced pluripotent stem (iPS) cells; assay type: cell-based; details: human
Description: The dibenzyl butyl lactone derivative enantiomer A and B were compared to enterolactone and tested to determine toxicity using a human pluripotent stem (hPS) cell-based assay that predicts the developmental toxicity potential. […] The current study was conducted using human induced pluripotent stem (iPS) cells.
The impact of test article exposure on ornithine and cystine metabolism in human induced pluripotent stem (iPS) cells was measured for three test articles (dibenzyl butyl lactone derivative enantiomer A, dibenzyl butyl lactone derivative enantiomer B, and enterolactone) and prediction of the potential for developmental toxicity was made through application of the hPS cell-based assay. Exposure spanned a range of eight treatment levels per test article ranging from 0.03-100 μM.
The observed decrease in the o/c ratio following exposure to each test article is indicative of the potential for developmental toxicity and/or embryo lethality in vivo at or above the dTP concentration. FIGS. 15A-C show the o/c ratio of dibenzyl butyl lactone derivative enantiomer A (FIG. 15A), dibenzyl butyl lactone derivative enantiomer B (FIG. 15B), and (+/−) enterolactone (FIG. 15C). The graphs in FIGS. 15A-C show the cell viability and o/c/ ratio over concentrations of 0.03-100 μM with the straight horizontal line illustrating the developmental toxicity threshold of 0.85.

## O=C1OCC(Cc2ccc3c(c2)OCO3)/C1=C\c1cccc(O)c1 (single isomer, unassigned) [Enantiomer B, 3-[(3,4-dimethoxyphenyl)cyclopentyl], 4-[(3-hydroxyphenol)methyl]oxolan-2-one]
[1]; MCF7, 24 hours, 0.06 μM
  Cell death #1 (%): −90.03%
  Cell death #2 (%): −85.75%
  Cell death #3 (%): −79.34%
  Cell death (%) MEAN: −85.04%
[1]; MCF7, 24 hours, 0.17 μM
  Cell death #1 (%): −146.30%
  Cell death #2 (%): −115.67%
  Cell death #3 (%): −91.45%
  Cell death (%) MEAN: −117.81%
[1]; MCF7, 24 hours, 0.51 μM
  Cell death #1 (%): −124.22%
  Cell death #2 (%): −120.66%
  Cell death #3 (%): −95.01%
  Cell death (%) MEAN: −113.30%
[1]; MCF7, 24 hours, 1.54 μM
  Cell death #1 (%): −115.67%
  Cell death #2 (%): −156.99%
  Cell death #3 (%): −114.96%
  Cell death (%) MEAN: −129.21%
[1]; MCF7, 24 hours, 4.63 μM
  Cell death #1 (%): −134.19%
  Cell death #2 (%): −163.40%
  Cell death #3 (%): −138.47%
  Cell death (%) MEAN: −145.35%
[1]; MCF7, 24 hours, 13.89 μM
  Cell death #1 (%): −132.06%
  Cell death #2 (%): −174.09%
  Cell death #3 (%): −134.91%
  Cell death (%) MEAN: −147.02%
[1]; MCF7, 24 hours, 41.67 μM
  Cell death #1 (%): −211.84%
  Cell death #2 (%): −192.61%
  Cell death #3 (%): −204.01%
  Cell death (%) MEAN: −202.82%
[1]; MCF7, 24 hours, 125.00 μM
  Cell death #1 (%): 63.85%
  Cell death #2 (%): 47.46%
  Cell death #3 (%): 63.13%
  Cell death (%) MEAN: 58.15%
[1]; MCF7, 72 hours, 0.06 μM
  Cell death #1 (%): −31.84%
  Cell death #2 (%): −27.21%
  Cell death #3 (%): −56.05%
  Cell death (%) MEAN: −38.37%
[1]; MCF7, 72 hours, 0.17 μM
  Cell death #1 (%): −74.60%
  Cell death #2 (%): −57.08%
  Cell death #3 (%): −52.45%
  Cell death (%) MEAN: −61.38%
[1]; MCF7, 72 hours, 0.51 μM
  Cell death #1 (%): −28.49%
  Cell death #2 (%): −52.45%
  Cell death #3 (%): −56.31%
  Cell death (%) MEAN: −45.75%
[1]; MCF7, 72 hours, 1.54 μM
  Cell death #1 (%): −22.57%
  Cell death #2 (%): −37.77%
  Cell death #3 (%): −19.48%
  Cell death (%) MEAN: −26.60%
[1]; MCF7, 72 hours, 4.63 μM
  Cell death #1 (%): −32.87%
  Cell death #2 (%): −34.42%
  Cell death #3 (%): −30.04%
  Cell death (%) MEAN: −32.44%
[1]; MCF7, 72 hours, 13.89 μM
  Cell death #1 (%): −23.34%
  Cell death #2 (%): −30.55%
  Cell death #3 (%): −9.69%
  Cell death (%) MEAN: −21.20%
[1]; MCF7, 72 hours, 41.67 μM
  Cell death #1 (%): −18.96%
  Cell death #2 (%): −6.08%
  Cell death #3 (%): 17.10%
  Cell death (%) MEAN: −2.65%
[1]; MCF7, 72 hours, 125.00 μM
  Cell death #1 (%): 99.00%
  Cell death #2 (%): 99.52%
  Cell death #3 (%): 99.00%
  Cell death (%) MEAN: 99.17%
[1]; MCF7, at higher concentrations, 24 hours and 72 hours post-treatment
  breast cancer cell death as compared to enterolactone: increased breast cancer cell death as compared to enterolactone
[2]
  TP Concentration: 49.8 µM
  TP concentration, fold lower than (+/−) enterolactone TP: 4-6 fold
  dTP Concentration: 15.1 µM
  dTP and TP concentrations compared with anti-cancer drugs tested in this assay: higher than >90% of the anti-cancer drugs
  similarity of dTP concentrations between all three compounds: ≤ 2 fold

Reference: patent US20250000843A1, “LIGNAN-INSPIRED COMPOUNDS, METHODS OF MAKING, AND USING THEREOF” (IOWAIBO, INC., priority 2023, published 2025)
